Among the test systems are HOP-92 NSCLC; M14 melanoma; KM12 colon; IGROV1 ovarian; K-562 leukemia; HL-60(TB) leukemia; RPMI-8226 leukemia; NCI-H23 lung; SF-539 CNS; COLO 205 colon; MALME-3M melanoma; SF-295 CNS; A498 renal; U251 CNS; NCI-H460 lung; NCI/ADR-RES ovarian.
Assay in all cases: growth of human tumour cells (NCI), 48 h

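Five compound concentrations were applied to cells in 96-well plates for 48 hours; endpoints were derived by simple linear interpolation of the resulting dose-response curve. GI50 = concentration required for 50% inhibition of growth. TGI: concentration producing complete growth inhibition.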

For `O=C(c1ccccc1)C1S(=O)(=O)OCCOS1(=O)=O`, the TGI in the experiment on HOP-92 NSCLC, in the experiment on M14 melanoma, with KM12 colon, in the experiment on IGROV1 ovarian, in the experiment on K-562 leukemia and in the experiment on HL-60(TB) leukemia was > 100 µM throughout. Also, the TGI with RPMI-8226 leukemia, in the experiment on NCI-H23 lung, with SF-539 CNS, in the experiment on COLO 205 colon, in the experiment with MALME-3M melanoma and in the experiment on SF-295 CNS was > 100 µM throughout.

As to `N#C/C(=C/c1ccc2c(c1)OCO2)C(=O)c1ccccc1`, the TGI in the experiment on A498 renal, in the experiment with M14 melanoma, in the experiment with KM12 colon, in the experiment on IGROV1 ovarian, in the experiment on K-562 leukemia and in the experiment on RPMI-8226 leukemia was > 100 µM throughout. Besides, the TGI with NCI-H23 lung, in the experiment on U251 CNS, with SF-539 CNS, in the experiment with NCI-H460 lung, in the experiment with COLO 205 colon and in the experiment with MALME-3M melanoma was > 100 µM each time. For the same molecule, the TGI in the experiment with SF-295 CNS is > 100 µM.

Take `C[N+](C)(C)CC(=O)N/N=C(/C(=O)Nc1ccc(Br)cc1)C1C(=O)NC(=O)NC1=O`: the TGI in the experiment on A498 renal, in the experiment with M14 melanoma, in the experiment with KM12 colon, in the experiment on IGROV1 ovarian, in the experiment on K-562 leukemia and with HL-60(TB) leukemia was > 100 µM throughout. The TGI in the experiment with RPMI-8226 leukemia, in the experiment on NCI-H23 lung, with U251 CNS, in the experiment on SF-539 CNS, in the experiment on NCI-H460 lung and in the experiment with COLO 205 colon was > 100 µM each time. Further, the TGI in the experiment on MALME-3M melanoma and with SF-295 CNS was > 100 µM each time.

On to `O=C(CSc1nc(-c2ccccc2)c(-c2ccccc2)[nH]1)N/N=C/c1ccc(O)cc1`, for which the TGI with HOP-92 NSCLC is 84.9 µM; in the experiment with M14 melanoma it was 40.6 µM; in the experiment on KM12 colon it was 55.4 µM; in the experiment with IGROV1 ovarian, 95.7 µM; with K-562 leukemia, > 100 µM; with HL-60(TB) leukemia it was 62.3 µM. The TGI with RPMI-8226 leukemia turned out to be 60.6 µM; in the experiment with NCI-H23 lung it was 84.3 µM; with U251 CNS, 49 µM; with SF-539 CNS, 40.5 µM; in the experiment with NCI-H460 lung it was 44.8 µM; in the experiment on COLO 205 colon, 35.1 µM. Further, the TGI is 52.5 µM in the experiment with MALME-3M melanoma and 57.4 µM in the experiment on SF-295 CNS.

Take `Cc1cc2c(C)n(Cc3ccccc3Cl)nc2c(C(=O)O)c1C`: the TGI in the experiment with HOP-92 NSCLC, in the experiment with IGROV1 ovarian, with HL-60(TB) leukemia, with RPMI-8226 leukemia, in the experiment on NCI-H23 lung and in the experiment with U251 CNS was > 100 µM throughout. For the same molecule, the TGI in the experiment on SF-539 CNS, with NCI-H460 lung, with MALME-3M melanoma and in the experiment with SF-295 CNS was > 100 µM each time.

With `C=C(NC(=O)C(=C)NC(=O)c1csc(C2=NC3c4csc(n4)C4NC(=O)c5csc(n5)C(C(C)(O)C(C)O)NC(=O)C5CSC(=N5)/C(=C/C)NC(=O)C(C(C)O)NC(=O)c5csc(n5)C3(CC2)NC(=O)C(C)NC(=O)C(=C)NC(=O)C(C)NC(=O)C(C(C)CC)NC2C=Cc3c(C(C)O)cc(nc3C2O)C(=O)OC4C)n1)C(N)=O` (stereo unspecified), the TGI in the experiment with A498 renal was 3.59 µM; in the experiment with HOP-92 NSCLC, > 100 µM; with M14 melanoma it was 3.17 µM; with IGROV1 ovarian it was 63.8 µM; in the experiment with HL-60(TB) leukemia, > 100 µM; with RPMI-8226 leukemia, 6.28 µM. Moreover, the TGI is 13.7 µM in the experiment with NCI-H23 lung; > 100 µM in the experiment on NCI/ADR-RES ovarian; 3.04 µM in the experiment with U251 CNS; 4.13 µM in the experiment with SF-539 CNS; 4.39 µM with NCI-H460 lung; 0.836 µM in the experiment with COLO 205 colon. The TGI turned out to be 3.99 µM with MALME-3M melanoma and 12.8 µM in the experiment on SF-295 CNS. The figures for the GI50 in the experiment with HOP-92 NSCLC and in the experiment with COLO 205 colon were 8.07 µM and 0.299 µM, respectively.

Regarding `O=c1[nH]c2ccccc2nc1/C=C(\O)c1ccccc1O`, the TGI in the experiment with A498 renal, in the experiment with HOP-92 NSCLC, in the experiment on M14 melanoma, in the experiment on KM12 colon, in the experiment with IGROV1 ovarian and in the experiment on K-562 leukemia was > 100 µM in each case. For the same molecule, the TGI in the experiment on HL-60(TB) leukemia, in the experiment with RPMI-8226 leukemia, in the experiment with NCI-H23 lung, in the experiment on U251 CNS, with NCI-H460 lung and in the experiment on COLO 205 colon was > 100 µM each time. The TGI with MALME-3M melanoma and in the experiment on SF-295 CNS was > 100 µM in each case.

Regarding `COc1ccc([C@@H]2CC(=O)N2)cc1`, the TGI with A498 renal, with HOP-92 NSCLC, with M14 melanoma, in the experiment on KM12 colon, in the experiment with IGROV1 ovarian and in the experiment with K-562 leukemia was > 100 µM each time. The TGI in the experiment with HL-60(TB) leukemia, in the experiment with RPMI-8226 leukemia, with NCI-H23 lung, with U251 CNS, with SF-539 CNS and with NCI-H460 lung was > 100 µM each time. Moreover, the TGI with COLO 205 colon, with MALME-3M melanoma and in the experiment on SF-295 CNS was > 100 µM in each case.

With `O=C1/C=C(/c2ccc(O)cc2)[C@@H](O)Cc2ccc(O)cc2O1`, the TGI is 86.4 µM in the experiment with A498 renal; > 100 µM with M14 melanoma; > 100 µM in the experiment with KM12 colon; > 100 µM with IGROV1 ovarian; > 100 µM in the experiment on NCI-H23 lung; > 100 µM in the experiment with U251 CNS. Moreover, the TGI in the experiment with SF-539 CNS, in the experiment with NCI-H460 lung, with COLO 205 colon, in the experiment with MALME-3M melanoma and in the experiment with SF-295 CNS was > 100 µM each time.

As for `CCOC(=O)/C(=C/c1ccc(C(=O)OC)cc1)N(CC)CC`, the TGI was > 100 µM in the experiment on HOP-92 NSCLC; > 100 µM in the experiment on M14 melanoma; > 100 µM in the experiment with KM12 colon; > 100 µM in the experiment with IGROV1 ovarian; 82.7 µM in the experiment on K-562 leukemia; 69.4 µM in the experiment on HL-60(TB) leukemia. Also, the TGI was > 100 µM in the experiment with RPMI-8226 leukemia; > 100 µM in the experiment with NCI-H23 lung; > 100 µM in the experiment with U251 CNS; 60.1 µM in the experiment with SF-539 CNS; > 100 µM in the experiment on COLO 205 colon; > 100 µM in the experiment on MALME-3M melanoma.

These data come from PubChem BioAssay (NCI).
